The record followed here is patent US11111253B2, “6-aryl-7-substituted-3-(1H-pyrazol-5-yl)-7H-[1,2,4]triazolo[3,4-b][1,3,4]thiadiazines as inhibitors of the STAT3 pathway with anti-proliferative activity” (UNIVERSITY OF PITTSBURGH—OF THE COMMONWEALTH SYSTEM OF …, priority 2015, dated 2021).

Format in all cases: cell-based
Experiment [1] concerns FADU. Description: Growth inhibition FADU. As to conditions: Table 6; average of 2 experiments.
Experiment [2] concerns 686LN. Description: Growth inhibition 686LN. Conditions: Table 6; average of 2 experiments.
For experiment [3], the system named is OSC19. In words: Growth inhibition OSC19. Conditions: Table 6; average of 2 experiments.
Experiment [4] deals with STAT1. In words: STAT1 assay (selectivity). As to conditions: Table 4. As for the experimental part: (§1) Compound samples (in 3-5 mg quantities) were evaluated in a variety of assays. All compound submissions were fully characterized (1H, 13C, IR, FIRMS), satisfied purity criteria (≥95% LC/MC, ELS).
Experiment [5] deals with STAT3. Description: HCS STAT3 assay. Conditions: Table 4. Here is the method:
as §1

For experiment [6], the system named is Cal33 cells. Description: Cal33 growth inhibition. As to conditions: Table 5; * average of 2 experiments. As for the experimental part: as §1

Usually GI50 stands for the concentration giving 50% growth inhibition. Read a low GI50 as more potent growth inhibition. `CC1Sc2nnc(-c3cc(-c4ccccc4)n[nH]3)n2N=C1c1ccccc1` (stereo not shown) [compound 21]: the values for the 50% growth inhibitory concentration (GI50) in experiment [1], in experiment [2] and in experiment [3] were 32.7 µM, 32.2 µM and 31.3 µM, respectively.

As usually defined, the IC50 is the point on the concentration scale where inhibition reaches its midpoint. A low value points to greater potency in that assay. With “1-(5-(6-(4-methoxyphenyl)-7-methyl-7H-[1,2,4]triazolo[3,4-b][1,3,4]thiadiazin-3-yl)-3-phenyl-1H-pyrazol-1-yl)ethanone [8B]”, the half-inhibitory concentration (IC50) in experiment [4] was greater than 50 µM; in experiment [5] it was 3.7 µM.

Consider `COc1ccc(C2=Nn3c(nnc3-c3cc(-c4ccc(Cl)cc4)n[nH]3)S[C@@H]2C)cc1` (single isomer, unassigned; ent-1) [24 (ent-1)], for which the 50% growth inhibitory concentration (GI50) in experiment [6] came to 2.7 µM.

On to “1-(3-(6-(4-Methoxyphenyl)-7-methyl-7H-[1,2,4]triazolo[3,4-b][1,3,4]thiadiazin-3-yl)-5-phenyl-1H-pyrazol-1-yl)ethanone [8A]”, for which the concentration for half-maximal inhibition (IC50) in experiment [4] was determined as 40.6 ± 7.5 µM.
